Like-named read-outs stand apart in the source and are kept apart here.
Key:
human keratinocytes = assay: Protection of keratinocytes against UVB-induced cell impairment (apoptosis ELISA); format: cell-based; conditions: UVB 250 J/m^2 for 16 hours, ligand concentration range between 10 nM and 10 μm
Experimental: The anti-apoptotic activity of the active agents was measured on human keratinocytes and on fibroblasts (ATCC) which were inoculated in 35 mm Petri dishes (5×10^5 cells/well) in DMEM (Dubelco's Mode Eagle Medium) supplemented with 10% fetal calf serum and left to proliferate to the point of confluence. This culture medium is then drawn off, the cells are rinsed and 0.1% fetal calf serum is added in the presence of a saline solution. Increasing concentrations of the substance to be studied are added. Twenty four hours later, the apoptosis is measured with an ELISA (enzyme-linked immunosorbent assay) assay kit.
Keratinocytes were subjected to ultraviolet radiation of type B (UVB) at a dose of 250 J/m^2 for 16 hours (J. Invest. Dermatol. 1995, 104: 922-927). In the presence of the PBR ligand Ro 5-4864, it was shown that the cell impairment processes induced by the irradiation are prevented in a ligand concentration range of between 10 nM and 10 μm.

[1] = molecular target: T1, peripheral benzodiazepine receptor (PBR) (Homo sapiens, UniProt P30536); assay: Binding studies on keratinocyte line A-431 by displacement of [3H]-PK11195
T1 construct: the peripheral receptor borne by the keratinocytes; host or cells: A-431 human epidermoid carcinoma keratinocyte line
T1 sequence (P30536 whole entry): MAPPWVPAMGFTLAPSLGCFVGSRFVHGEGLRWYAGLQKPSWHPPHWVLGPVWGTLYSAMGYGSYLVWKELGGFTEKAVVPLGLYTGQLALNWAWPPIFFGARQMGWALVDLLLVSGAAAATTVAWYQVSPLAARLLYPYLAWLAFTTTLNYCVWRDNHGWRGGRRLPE

Compound: CN1C(=O)CN=C(c2ccc(Cl)cc2)c2cc(Cl)ccc21 [Ro 5-4864, chlorodiazepam]
- cell impairment processes induced by UVB irradiation (human keratinocytes): prevented
- IC50 ([1]; A-431 keratinocyte line, read-out: IC50, displacement of the reference peripheral ligand PK 11195): ~25 nM

Compound: CN1C(=O)CN=C(c2ccccc2)c2cc(Cl)ccc21 [diazepam]
- IC50 [1]: ~100 nM

Compound: O=C1CN=C(c2ccccc2Cl)c2cc([N+](=O)[O-])ccc2N1 [clonazepam]
- displacement of the reference peripheral ligand PK 11195 ([1]; A-431 keratinocyte line, at 3 200 nM): inactive

From patent publication US6767533B1, “Use of a substance binding with the peripheral benzodiazepin receptor for treating skin stress” (Sanofi-Synthelabo, priority 1998, dated 2004)
